Data as given in PubChem BioAssay AID212 (DTP/NCI, 2004).
Several values for one entry are separate records, joined by “and”; a condition that tells them apart may be missing. Equal entries are not always repeated. Inconclusive results are not listed.

Test system: BDF1 mice, colon carcinoma 38 sc, T/C %
Experiment: NCI In Vivo Anticancer Drug Screen. Data for tumor model Colon Carcinoma 38 (subcutaneous) in B6D2F1 (BDF1) mice
Settings: endpoint: median tumor weight (est.), higher = larger tumour
Procedure: The antitumor activity of compounds was measured in mice bearing transplantable tumors. Survival or tumor size were measured and the results are expressed as the measurement made in the treated group (T) divided by the measurement made in the vehicle treated control group (C). The tumor model used in this assay is Colon Carcinoma 38 (subcutaneous) in B6D2F1 (BDF1) mice

[1] = dose: 12.5 mg/kg/injection, schedule: Q07DX002 (ip), vehicle: Klucel (hydroxypropylcellulose) (HPC)
[2] = dose: 25.0 mg/kg/injection, schedule: Q07DX002 (ip), vehicle: Klucel (hydroxypropylcellulose) (HPC)
[3] = dose: 50.0 mg/kg/injection, schedule: Q07DX002 (ip), vehicle: Klucel (hydroxypropylcellulose) (HPC)
[4] = dose: 200.0 mg/kg/injection, schedule: Q07DX002 (ip), vehicle: Klucel (hydroxypropylcellulose) (HPC)
[5] = dose: 6.25 mg/kg/injection, schedule: Q07DX002 (ip), vehicle: suspension in saline
[6] = dose: 12.5 mg/kg/injection, schedule: Q07DX002 (ip), vehicle: suspension in saline
[7] = dose: 25.0 mg/kg/injection, schedule: Q07DX002 (ip), vehicle: suspension in saline
[8] = dose: 400.0 mg/kg/injection, schedule: Q07DX002 (ip), vehicle: Klucel (hydroxypropylcellulose) (HPC)

In the case of `COc1ccc2c(c1)CCC(c1ccccc1)=C2c1ccc(OCCN2CCCC2)cc1`, the T/C [1] is reported as 68 % of control and 85 % of control, the T/C [2] is reported as 83 % of control and 87 % of control and the T/C [3] is reported as 70 % of control. For the same molecule, the T/C (dose: 100.0 mg/kg/injection, schedule: Q07DX002 (ip), vehicle: Klucel (hydroxypropylcellulose) (HPC)) was 77 % of control and 79 % of control and the T/C [4] was 100 % of control.
In the case of `CCN1/C(=C/C=C/C=C/c2sc3ccccc3[n+]2CC)Sc2ccccc21`, the T/C (dose: 0.03 mg/kg/injection, schedule: Q07DX002 (ip), vehicle: saline) is reported as 151 % of control, the T/C (dose: 0.03 mg/kg/injection, schedule: Q07DX002 (ip), vehicle: suspension in saline) is reported as 59 % of control and the T/C (dose: 0.06 mg/kg/injection, schedule: Q07DX002 (ip), vehicle: saline) is reported as 167 % of control. For the same molecule, the T/C (dose: 0.06 mg/kg/injection, schedule: Q07DX002 (ip), vehicle: suspension in saline) was 104 % of control, the T/C (dose: 0.12 mg/kg/injection, schedule: Q07DX002 (ip), vehicle: saline) was 122 % of control and the T/C (dose: 0.12 mg/kg/injection, schedule: Q07DX002 (ip), vehicle: suspension in saline) was 100 % of control. The T/C (dose: 0.25 mg/kg/injection, schedule: Q07DX002 (ip), vehicle: suspension in saline) was 104 % of control, the T/C (dose: 0.5 mg/kg/injection, schedule: Q07DX002 (ip), vehicle: saline) was 162 % of control and the T/C (dose: 0.5 mg/kg/injection, schedule: Q07DX002 (ip), vehicle: suspension in saline) was 109 % of control. The T/C (dose: 1.0 mg/kg/injection, schedule: Q07DX002 (ip), vehicle: saline) was 197 % of control.
For `C[n+]1c(-c2cccc3ccccc23)c2cc(N)ccc2c2ccccc21`, the T/C (dose: 3.12 mg/kg/injection, schedule: Q07DX002 (ip), vehicle: saline) was 107 % of control, the T/C (dose: 3.12 mg/kg/injection, schedule: Q07DX002 (ip), vehicle: suspension in saline) was 160 % of control and the T/C (dose: 6.25 mg/kg/injection, schedule: Q07DX002 (ip), vehicle: saline) was 122 % of control. The T/C [5] was 110 % of control, the T/C (dose: 12.5 mg/kg/injection, schedule: Q07DX002 (ip), vehicle: saline) was 64 % of control and 85 % of control and the T/C [6] was 256 % of control. For the same molecule, the T/C (dose: 25.0 mg/kg/injection, schedule: Q07DX002 (ip), vehicle: saline) was 67 % of control and 79 % of control and the T/C [7] was 193 % of control.
In the case of `O=CC(=O)c1ccc(O)cc1`, the T/C [5] is reported as 216 % of control, the T/C [6] is reported as 114 % of control and the T/C [7] is reported as 153 % of control. For the same molecule, the T/C (dose: 50.0 mg/kg/injection, schedule: Q07DX002 (ip), vehicle: suspension in saline) was 153 % of control and the T/C (dose: 200.0 mg/kg/injection, schedule: Q07DX002 (ip), vehicle: suspension in saline) was 118 % of control.
`COc1ccc2c(NCCCCCCNc3c4ccccc4nc4cc(OC)ccc34)c3ccccc3nc2c1` was tested, and the T/C (dose: 0.31 mg/kg/injection, schedule: Q07DX002 (ip), vehicle: lactic acid) was 54 % of control and the T/C (dose: 0.32 mg/kg/injection, schedule: Q07DX002 (ip), vehicle: lactic acid) was 72 % of control.
`C[C@]12CCC(=O)C=C1CC[C@@H]1[C@@H]2[C@@H](O)C[C@@]2(C)[C@H]1CC[C@]2(O)C(=O)CO` was tested, and the T/C (dose: 40.0 mg/kg/injection, schedule: Q07DX003 (ip), vehicle: Klucel (hydroxypropylcellulose) (HPC)) was 73 % of control, the T/C (dose: 80.0 mg/kg/injection, schedule: Q07DX003 (ip), vehicle: Klucel (hydroxypropylcellulose) (HPC)) was 76 % of control and the T/C (dose: 160.0 mg/kg/injection, schedule: Q07DX003 (ip), vehicle: Klucel (hydroxypropylcellulose) (HPC)) was 123 % of control and 104 % of control. For the same molecule, the T/C [4] was 63 % of control, the T/C (dose: 320.0 mg/kg/injection, schedule: Q07DX003 (ip), vehicle: Klucel (hydroxypropylcellulose) (HPC)) was 118 % of control and the T/C [8] was 74 % of control. For the same molecule, the T/C (dose: 640.0 mg/kg/injection, schedule: Q07DX003 (ip), vehicle: Klucel (hydroxypropylcellulose) (HPC)) was 79 % of control and 103 % of control, the T/C (dose: 800.0 mg/kg/injection, schedule: Q07DX002 (ip), vehicle: Klucel (hydroxypropylcellulose) (HPC)) was 93 % of control and the T/C (dose: 800.0 mg/kg/injection, schedule: Q07DX003 (ip), vehicle: Klucel (hydroxypropylcellulose) (HPC)) was 57 % of control. For the same molecule, the T/C (dose: 1200.0 mg/kg/injection, schedule: Q07DX002 (ip), vehicle: Klucel (hydroxypropylcellulose) (HPC)) was 70 % of control.
For `C=C1CCOC2(C(O)C(C)(O)CO)NC(=O)C1(O)NC2=O` (stereo not drawn), the T/C (dose: 225.0 mg/kg/injection, schedule: Q07DX002 (ip), vehicle: saline) was 104 % of control, the T/C (dose: 450.0 mg/kg/injection, schedule: Q07DX002 (ip), vehicle: saline) was 74 % of control and the T/C (dose: 900.0 mg/kg/injection, schedule: Q07DX002 (ip), vehicle: saline) was 81 % of control. The T/C (dose: 1800.0 mg/kg/injection, schedule: Q07DX002 (ip), vehicle: saline) was 46 % of control.
For `CC(=O)Oc1ccc[nH]c1=O`, the T/C (dose: 25.0 mg/kg/injection, schedule: Q07DX002 (ip), vehicle: saline with Tween-80) was 102 % of control, the T/C (dose: 25.0 mg/kg/injection, schedule: Q07DX003 (ip), vehicle: saline with Tween-80) was 101 % of control and the T/C (dose: 50.0 mg/kg/injection, schedule: Q07DX002 (ip), vehicle: saline with Tween-80) was 77 % of control. The T/C (dose: 50.0 mg/kg/injection, schedule: Q07DX003 (ip), vehicle: saline with Tween-80) was 70 % of control, the T/C (dose: 100.0 mg/kg/injection, schedule: Q07DX002 (ip), vehicle: saline with Tween-80) was 108 % of control and 92 % of control and the T/C (dose: 100.0 mg/kg/injection, schedule: Q07DX003 (ip), vehicle: saline with Tween-80) was 49 % of control. For the same molecule, the T/C (dose: 200.0 mg/kg/injection, schedule: Q07DX002 (ip), vehicle: saline with Tween-80) was 114 % of control, the T/C (dose: 200.0 mg/kg/injection, schedule: Q07DX003 (ip), vehicle: saline with Tween-80) was 114 % of control and the T/C (dose: 400.0 mg/kg/injection, schedule: Q07DX003 (ip), vehicle: saline with Tween-80) was 83 % of control. For the same molecule, the T/C (dose: 800.0 mg/kg/injection, schedule: Q07DX002 (ip), vehicle: saline with Tween-80) was 74 % of control and 75 % of control and the T/C (dose: 800.0 mg/kg/injection, schedule: Q07DX003 (ip), vehicle: saline with Tween-80) was 57 % of control.
`O=C1c2ccccc2C(=O)c2c3c(cc(NCCNCCO)c21)N(CCO)CCN3` was tested, and the T/C (dose: 100.0 mg/kg/injection, schedule: Q07DX002 (ip), vehicle: DMSO) was 96 % of control, the T/C (dose: 200.0 mg/kg/injection, schedule: Q07DX002 (ip), vehicle: DMSO) was 105 % of control and the T/C (dose: 400.0 mg/kg/injection, schedule: Q07DX002 (ip), vehicle: DMSO) was 117 % of control.
With `COc1cc2c3c(cccc3c1)C(=O)N(CCN(C)C)C2=O` the T/C (dose: 10.0 mg/kg/injection, schedule: Q07DX002 (ip), vehicle: saline with Tween-80) was 86 % of control and 103 % of control, the T/C (dose: 40.0 mg/kg/injection, schedule: Q07DX002 (ip), vehicle: saline with Tween-80) was 73 % of control and 92 % of control and the T/C (dose: 80.0 mg/kg/injection, schedule: Q07DX002 (ip), vehicle: saline with Tween-80) was 72 % of control. For the same molecule, the T/C (dose: 160.0 mg/kg/injection, schedule: Q07DX002 (ip), vehicle: saline with Tween-80) was 73 % of control.
`NCCOCC(N)C(=O)O` (stereo not drawn) was tested, and the T/C (dose: 125.0 mg/kg/injection, schedule: Q07DX002 (ip), vehicle: saline) was 112 % of control, the T/C (dose: 250.0 mg/kg/injection, schedule: Q07DX002 (ip), vehicle: saline) was 84 % of control and the T/C (dose: 500.0 mg/kg/injection, schedule: Q07DX002 (ip), vehicle: saline) was 107 % of control. For the same molecule, the T/C (dose: 1000.0 mg/kg/injection, schedule: Q07DX002 (ip), vehicle: saline) was 107 % of control.
With `CSc1nc(=O)[nH]nc1SCc1ccccc1` the T/C [2] was 151 % of control and 169 % of control and the T/C [8] was 65 % of control.
`OCC1OC(n2cnc3c(NO)ncnc32)C(O)C1O` (stereo not drawn) was tested, and the T/C [1] was 88 % of control and 96 % of control, the T/C [2] was 89 % of control and 91 % of control and the T/C [3] was 121 % of control and 100 % of control. The T/C [4] was 118 % of control and the T/C [8] was 96 % of control and 106 % of control.
With `N=C(N)Sc1cc(O)ccc1O` the T/C (dose: 12.5 mg/kg/injection, schedule: Q07DX003 (ip), vehicle: saline) was 88 % of control, the T/C (dose: 25.0 mg/kg/injection, schedule: Q07DX003 (ip), vehicle: saline) was 66 % of control and the T/C (dose: 50.0 mg/kg/injection, schedule: Q07DX003 (ip), vehicle: saline) was 77 % of control. The T/C (dose: 100.0 mg/kg/injection, schedule: Q07DX003 (ip), vehicle: saline) was 103 % of control and the T/C (dose: 200.0 mg/kg/injection, schedule: Q07DX003 (ip), vehicle: saline) was 55 % of control.
